For one series, the target named is Beta-secretase 1 (Homo sapiens, UniProt P56817). Description: Inhibition of human BACE-1 using MOCA-SEV-NL-DAEFR-DNP-RR as substrate preincubated with substrate followed by enzyme addition by FRET assay.
The next series deals with Cholinesterase (Homo sapiens, UniProt P06276). As to the kind of experiment: Inhibition of human serum BChE using butyrylthiocholine iodide as substrate preincubated for 10 mins followed by substrate addition by Ellman's method. In kind it is cell-free.
Chain of Cholinesterase (P06276 whole entry): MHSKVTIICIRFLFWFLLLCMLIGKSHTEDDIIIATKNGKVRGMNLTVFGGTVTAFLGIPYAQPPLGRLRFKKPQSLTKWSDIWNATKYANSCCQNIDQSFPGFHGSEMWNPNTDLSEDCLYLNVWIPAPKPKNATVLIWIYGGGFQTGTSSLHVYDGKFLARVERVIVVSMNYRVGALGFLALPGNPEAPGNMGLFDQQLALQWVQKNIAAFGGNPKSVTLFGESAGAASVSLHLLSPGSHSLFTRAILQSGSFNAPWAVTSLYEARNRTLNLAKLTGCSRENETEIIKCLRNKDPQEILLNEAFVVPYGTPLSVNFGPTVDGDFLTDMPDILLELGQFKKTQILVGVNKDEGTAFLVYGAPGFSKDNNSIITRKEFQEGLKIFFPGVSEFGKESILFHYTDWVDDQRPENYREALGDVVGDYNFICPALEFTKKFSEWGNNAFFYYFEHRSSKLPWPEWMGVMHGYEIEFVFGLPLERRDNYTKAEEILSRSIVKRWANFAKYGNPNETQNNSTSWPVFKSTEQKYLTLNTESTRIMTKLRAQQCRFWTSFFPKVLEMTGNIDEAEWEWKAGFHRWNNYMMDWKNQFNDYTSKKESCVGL
Series [1] deals with T1, Acetylcholinesterase (Homo sapiens, UniProt P22303). Description: Inhibition of human erythrocytes AChE using acetylthiocholine iodide as substrate preincubated for 10 mins followed by substrate addition by Ellman's method. In kind it is tissue-based, Erythrocyte. In general terms: In Ellman's method for cholinesterases, released thiocholine reacts with DTNB.
T1 sequence (P22303 whole entry): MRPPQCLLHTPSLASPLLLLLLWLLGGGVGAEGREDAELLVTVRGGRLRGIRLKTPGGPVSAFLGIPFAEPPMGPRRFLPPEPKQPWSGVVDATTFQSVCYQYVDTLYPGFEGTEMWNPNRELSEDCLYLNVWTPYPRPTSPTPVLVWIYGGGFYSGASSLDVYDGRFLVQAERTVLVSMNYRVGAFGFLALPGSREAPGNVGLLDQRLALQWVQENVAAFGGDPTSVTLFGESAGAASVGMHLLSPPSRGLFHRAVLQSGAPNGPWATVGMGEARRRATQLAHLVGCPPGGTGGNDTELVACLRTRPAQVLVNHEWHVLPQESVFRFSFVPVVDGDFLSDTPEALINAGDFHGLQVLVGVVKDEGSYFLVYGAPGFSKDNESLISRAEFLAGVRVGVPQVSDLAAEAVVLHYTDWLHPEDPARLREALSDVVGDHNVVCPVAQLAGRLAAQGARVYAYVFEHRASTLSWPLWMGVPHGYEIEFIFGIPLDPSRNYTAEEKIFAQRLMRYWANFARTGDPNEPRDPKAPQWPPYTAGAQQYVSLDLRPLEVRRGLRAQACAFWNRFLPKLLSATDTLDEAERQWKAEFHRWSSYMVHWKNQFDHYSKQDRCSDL
Series [2] can be described thus: Permeability of the compound in PBS/EtOH buffer (7:3) at 25 ug/ml after 18 hrs by PAMPA-BBB assay. In general terms: In PAMPA a lipid-coated filter parts donor from acceptor wells.
The target in series [3] is Amyloid-beta precursor protein (Homo sapiens) (UniProt P05067). The note with it: dose microM 5-20, time 48.0 hrs.
Chain of Amyloid-beta precursor protein (Homo sapiens) (P05067 whole entry): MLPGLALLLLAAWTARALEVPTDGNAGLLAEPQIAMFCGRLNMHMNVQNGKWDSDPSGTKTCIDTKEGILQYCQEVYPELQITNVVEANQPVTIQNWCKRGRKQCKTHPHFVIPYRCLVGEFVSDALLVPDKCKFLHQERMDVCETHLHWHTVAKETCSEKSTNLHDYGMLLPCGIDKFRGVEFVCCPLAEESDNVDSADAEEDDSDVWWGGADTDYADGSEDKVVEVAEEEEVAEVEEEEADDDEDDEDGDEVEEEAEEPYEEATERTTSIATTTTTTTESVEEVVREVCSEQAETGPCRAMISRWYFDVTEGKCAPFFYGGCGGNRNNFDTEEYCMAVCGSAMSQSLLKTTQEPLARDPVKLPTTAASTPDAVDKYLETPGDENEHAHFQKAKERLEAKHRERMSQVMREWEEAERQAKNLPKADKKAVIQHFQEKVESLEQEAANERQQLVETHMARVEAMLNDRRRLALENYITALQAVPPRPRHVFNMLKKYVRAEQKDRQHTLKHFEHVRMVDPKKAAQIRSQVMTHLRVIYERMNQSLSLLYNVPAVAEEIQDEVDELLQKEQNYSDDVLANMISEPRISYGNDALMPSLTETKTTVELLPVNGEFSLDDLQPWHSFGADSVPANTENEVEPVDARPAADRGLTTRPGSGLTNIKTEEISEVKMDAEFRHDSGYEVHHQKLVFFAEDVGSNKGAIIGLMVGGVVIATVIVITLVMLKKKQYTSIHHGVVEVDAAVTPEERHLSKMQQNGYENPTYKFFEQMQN
For series [4], the target named is T1, Acetylcholinesterase. The settings on record: dose microM 5-20, time 48.0 hrs.
Series [5] deals with Rattus norvegicus. As to the kind of experiment: Cognitive enhancing effect in po dosed scopolamine-induced Wistar rat model of amnesia assessed as increase in spontaneous alteration pretreated for 7 days followed by scopolamine challenge and measured after 30 mins by Y-maze test. In kind it is functional, organism-based. The settings on record: dose mg/kg 2.5-10, time 7.0 day.

For the next series, the system named is SH-SY5Y. Description: Neuroprotective activity against amyloid beta (1 to 42)-induced oxidative stress in human SH-SY5Y cells assessed as effect on cell viability at 10 to 80 uM measured after 24 hrs by MTT assay (reference value: 61 %). The settings on record: dose microM 10-80. In kind it is functional. Background: Tetrazolium assays rely on reduction of a dye to a coloured formazan, in cell work by metabolically active cells.

Series [6] is described as follows: Acute toxicity in Wistar rat assessed as abnormal signs at 100 to 500 mg/kg, po measured up to 14 days by OCED guideline method. The note with it: in vivo, 336 h, dose 100-500 mg/kg, time 14 day. In kind it is organism-based.
Series [7] concerns Rattus norvegicus. As to the kind of experiment: Cognitive enhancing effect in scopolamine-induced Wistar rat model of amnesia assessed as increase in spontaneous alteration at 10 mg/kg, po pretreated for 7 days followed by scopolamine challenge and measured after 30 mins by Y-maze test. In kind it is functional, organism-based. The note with it: time 7.0 day.
The nature of series [8]: Acute toxicity in po dosed Wistar rat assessed as maximum tolerated dose by OCED guideline method. The settings on record: in vivo. In kind it is organism-based.
Series [9] concerns Rattus norvegicus. As to the kind of experiment: Improvement in learning and spatial memory in icv infused amyloid beta (1 to 42)-induced rat model of Alzheimer's disease assessed as reduction in escape latency at 5 mg/kg, po administered daily for 7 days starting from 7 days post surgery and measured daily for 5 days by Morris water maze test. In kind it is functional, organism-based. The note with it: time 12.0 day.

Series [10] is filed under the species Rattus norvegicus. The note with it: Wistar, dose 5.0 mg/kg, time 7.0 day.
For series [11], the system named is Rattus norvegicus. As to the kind of experiment: Improvement in learning and spatial memory in icv infused amyloid beta (1 to 42)-induced rat model of Alzheimer's disease assessed as increase in number of platform crossing at 5 mg/kg, po administered daily for 7 days starting from 7 days post surgery and measured after 6 days by Morris water maze test. The note with it: time 13.0 day. In kind it is functional, organism-based.

Calls of active or inactive are those of the source. No cut-off for these calls is given here.

As a reminder, the IC50 is the concentration that gives 50% inhibition. Lower therefore signals inhibition by little substance. By Papp is commonly meant the rate of passage across a membrane or cell layer, normalised by area and donor concentration. A low value points to poor permeation. For orientation: MTD means the largest dose that counted as tolerated.

Chain of Beta-secretase 1 (P56817 whole entry): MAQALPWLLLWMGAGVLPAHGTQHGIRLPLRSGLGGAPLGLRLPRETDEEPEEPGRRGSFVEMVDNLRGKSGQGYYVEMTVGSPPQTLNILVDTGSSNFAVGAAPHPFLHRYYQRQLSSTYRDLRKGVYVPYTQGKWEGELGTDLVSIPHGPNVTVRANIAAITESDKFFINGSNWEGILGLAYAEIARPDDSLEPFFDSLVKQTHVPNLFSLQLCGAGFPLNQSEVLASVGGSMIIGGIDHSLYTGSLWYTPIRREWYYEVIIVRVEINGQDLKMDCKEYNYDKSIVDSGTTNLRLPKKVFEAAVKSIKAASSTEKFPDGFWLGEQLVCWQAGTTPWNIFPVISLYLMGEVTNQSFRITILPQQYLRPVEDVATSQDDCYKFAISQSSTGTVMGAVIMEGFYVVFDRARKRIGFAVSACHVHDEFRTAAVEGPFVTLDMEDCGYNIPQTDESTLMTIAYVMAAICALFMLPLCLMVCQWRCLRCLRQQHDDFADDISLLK

With `Clc1ccc(-c2nnc(N3CCN(c4ccccn4)CC3)o2)cc1`, the figures for the half-inhibitory concentration (IC50) against Beta-secretase 1, on Cholinesterase and on Acetylcholinesterase [1] were 1320 nM, 1820 nM and 102 nM, respectively.

Take `COc1cc(-c2nnc(N3CCN(c4ccccn4)CC3)o2)cc(OC)c1OC`: the half-maximal inhibitory concentration (IC50) was found to be 3240 nM at Beta-secretase 1, 3640 nM against Cholinesterase and 222 nM on Acetylcholinesterase [1].

For `O=C(N/N=C/c1ccc(Br)cc1)N1CCN(c2ccccn2)CC1`, the values for the IC50 against Beta-secretase 1, against Cholinesterase and on Acetylcholinesterase [1] were 296 nM, 1880 nM and 489 nM, respectively. The same molecule returned an apparent permeability coefficient (Papp) at 18 h, 25 ug/ml in series [2] of 3.6 ×10⁻⁶ cm/s.

Take `O=C(N/N=C/c1ccc(O)cc1O)N1CCN(c2ccccn2)CC1`: the concentration for half-maximal inhibition (IC50) worked out at 4640 nM against Beta-secretase 1, 4820 nM on Cholinesterase and 4680 nM at Acetylcholinesterase [1].

Consider `Brc1ccc(-c2nnc(N3CCN(c4ccccn4)CC3)o2)cc1`, for which the Flu intensity in series [3] is 0.42; at Acetylcholinesterase [4] it was 0.6. The figures for the concentration for half-maximal inhibition (IC50) on Beta-secretase 1, at Cholinesterase and at Acetylcholinesterase [1] were 126 nM, 846 nM and 74 nM, respectively. In addition, the Activity entry was “Dose-dependent effect” with Rattus norvegicus [5], 63% with SH-SY5Y and “Non-Toxic” in [6]. Moreover, the apparent permeability coefficient (Papp) at 18 h, 25 ug/ml in [2] turned out to be 5.9 ×10⁻⁶ cm/s. For the same molecule, in the series on Rattus norvegicus [7], the outcome was Active. Further, the MTD in series [8] worked out at 100 mg/kg.

Consider `FC(F)(F)c1ccc(-c2nnc(N3CCN(c4ccccn4)CC3)o2)cc1`, for which the half-maximal inhibitory concentration (IC50) against Beta-secretase 1 is 465 nM; against Cholinesterase it was 2120 nM; on Acetylcholinesterase [1] it was 182 nM. The molecule further yielded a Papp at 18 h, 25 ug/ml in series [2] of 6.3 ×10⁻⁶ cm/s.

As to `O=C(N/N=C/c1ccc([N+](=O)[O-])cc1)N1CCN(c2ccccn2)CC1`, the figures for the concentration for half-maximal inhibition (IC50) on Beta-secretase 1, against Cholinesterase and against Acetylcholinesterase [1] were 2640 nM, 4020 nM and 1160 nM, respectively.

In the case of `FC(F)(F)Oc1ccc(-c2nnc(N3CCN(c4ccccn4)CC3)o2)cc1`, the half-maximal inhibitory concentration (IC50) stood at 822 nM against Beta-secretase 1, 1960 nM on Cholinesterase and 89 nM on Acetylcholinesterase [1]. The apparent permeability (Papp) at 18 h, 25 ug/ml in series [2] was determined as 6.8 ×10⁻⁶ cm/s.

Turning to `O=C(N/N=C/c1ccc(F)cc1F)N1CCN(c2ccccn2)CC1`, the 50% inhibitory concentration (IC50) was 446 nM on Beta-secretase 1, 3970 nM against Cholinesterase and 682 nM on Acetylcholinesterase [1]. The Papp at 18 h, 25 ug/ml in series [2] was determined as 4.1 ×10⁻⁶ cm/s.

Consider `O=C(N/N=C/c1ccc(O)cc1)N1CCN(c2ccccn2)CC1`, for which the IC50 at Beta-secretase 1 is 4680 nM; against Cholinesterase, 6150 nM; at Acetylcholinesterase [1] it was 4810 nM.

`COc1cc2c(cc1OC)C(=O)C(CC1CCN(Cc3ccccc3)CC1)C2` (stereo not drawn) came in with a Flu intensity in series [3] of 0.31. The outcome in the series with Rattus norvegicus [9] and with Rattus norvegicus [11] was Active. Moreover, the inhibition result in the series filed under Rattus norvegicus [10] was “Active”.

For the molecule `COc1cccc(/C=N/NC(=O)N2CCN(c3ccccn3)CC2)c1OC`, the IC50 against Beta-secretase 1 is 6820 nM; on Cholinesterase, greater than 10000 nM; against Acetylcholinesterase [1], greater than 10000 nM.

For `c1ccc(-c2nnc(N3CCN(c4ccccn4)CC3)o2)cc1`, the 50% inhibitory concentration (IC50) turned out to be 3220 nM at Beta-secretase 1, 3270 nM against Cholinesterase and 341 nM against Acetylcholinesterase [1].

For the molecule `O=C(N/N=C/c1ccccc1)N1CCN(c2ccccn2)CC1`, the IC50 worked out at 7690 nM on Beta-secretase 1, 4220 nM against Cholinesterase and 3620 nM on Acetylcholinesterase [1].

Regarding `O=C(N/N=C/c1ccc(Cl)cc1)N1CCN(c2ccccn2)CC1`, the IC50 came to 2960 nM against Beta-secretase 1, 4820 nM at Cholinesterase and 3420 nM at Acetylcholinesterase [1].

Take `Cc1cccc(-c2nnc(N3CCN(c4ccccn4)CC3)o2)c1`: the results for the IC50 on Beta-secretase 1, against Cholinesterase and against Acetylcholinesterase [1] were 2640 nM, greater than 10000 nM and 5240 nM, respectively.

Regarding `O=[N+]([O-])c1ccc(-c2nnc(N3CCN(c4ccccn4)CC3)o2)cc1`, the IC50 amounted to 1340 nM at Beta-secretase 1, 2860 nM at Cholinesterase and 219 nM against Acetylcholinesterase [1].

Turning to `O=C(N/N=C/c1ccc(C(F)(F)F)cc1)N1CCN(c2ccccn2)CC1`, the concentration for half-maximal inhibition (IC50) on Beta-secretase 1 was determined as 1820 nM; against Cholinesterase, 4040 nM; on Acetylcholinesterase [1], 1320 nM.

On to `COc1cc(/C=N/NC(=O)N2CCN(c3ccccn3)CC2)cc(OC)c1OC`, for which the IC50 on Beta-secretase 1 amounted to 4640 nM; against Cholinesterase, 4680 nM; on Acetylcholinesterase [1] it was 5690 nM.

On to `COc1cccc(-c2nnc(N3CCN(c4ccccn4)CC3)o2)c1OC`, for which the IC50 against Beta-secretase 1 was determined as 2160 nM; against Cholinesterase, 5220 nM; on Acetylcholinesterase [1] it was 1190 nM.

On to `Oc1ccc(-c2nnc(N3CCN(c4ccccn4)CC3)o2)c(O)c1`, for which the values for the IC50 against Beta-secretase 1, on Cholinesterase and at Acetylcholinesterase [1] were 382 nM, 3290 nM and 1340 nM, respectively.

Turning to `Fc1ccc(-c2nnc(N3CCN(c4ccccn4)CC3)o2)cc1`, the IC50 at Beta-secretase 1 was 1480 nM; on Cholinesterase, 1220 nM; on Acetylcholinesterase [1], 136 nM.

With `Cc1ccc(-c2nnc(N3CCN(c4ccccn4)CC3)o2)cc1`, the half-maximal inhibitory concentration (IC50) was 2480 nM against Beta-secretase 1, greater than 10000 nM against Cholinesterase and 1020 nM against Acetylcholinesterase [1].

For the molecule `Oc1ccccc1-c1nnc(N2CCN(c3ccccn3)CC2)o1`, the IC50 at Beta-secretase 1 is 2230 nM; against Cholinesterase, 8220 nM; at Acetylcholinesterase [1], 1230 nM.

For the molecule `Cc1ccc(/C=N/NC(=O)N2CCN(c3ccccn3)CC2)cc1`, the IC50 against Beta-secretase 1 is 3920 nM; against Cholinesterase it was greater than 10000 nM; against Acetylcholinesterase [1], 4780 nM.

As to `O=C(N/N=C/c1ccc(F)cc1)N1CCN(c2ccccn2)CC1`, the IC50 at Beta-secretase 1 was found to be 1240 nM; at Cholinesterase, 3990 nM; against Acetylcholinesterase [1], 1870 nM.

For `O=C(N/N=C/c1ccccc1O)N1CCN(c2ccccn2)CC1`, the half-maximal inhibitory concentration (IC50) on Beta-secretase 1 is 5880 nM; against Cholinesterase it was greater than 10000 nM; on Acetylcholinesterase [1] it was greater than 10000 nM.

Turning to `Cc1cccc(/C=N/NC(=O)N2CCN(c3ccccn3)CC2)c1`, the IC50 at Beta-secretase 1 was 4370 nM; against Cholinesterase, greater than 10000 nM; at Acetylcholinesterase [1], greater than 10000 nM.

Take `Oc1ccc(-c2nnc(N3CCN(c4ccccn4)CC3)o2)cc1`: the IC50 was determined as 1780 nM on Beta-secretase 1, 6020 nM on Cholinesterase and 1180 nM on Acetylcholinesterase [1].

On to `O=C(N/N=C/c1ccc(OC(F)(F)F)cc1)N1CCN(c2ccccn2)CC1`, for which the 50% inhibitory concentration (IC50) was found to be 248 nM at Beta-secretase 1, 4350 nM against Cholinesterase and 2910 nM against Acetylcholinesterase [1].

Values taken from ChEMBL document CHEMBL4665668, “Design and development of molecular hybrids of 2-pyridylpiperazine and 5-phenyl-1,3,4-oxadiazoles as potential multifunctional agents to treat Alzheimer's disease” (Eur J Med Chem, 2019).
